Experimental data taken from the supplement of paper PMC10307832.

Tests used:
Experiment in all cases: relative viability (nuclei count vs DMSO), 5 days (fraction); higher = more cells survive
COR-L23 = system: COR-L23
Method in brief: (§1)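 Dosing by pin tool came one day after lung cancer cell lines were seeded in 1536-well plates, using either one drug or a fixed anchor-drug dose plus five library-drug doses (not always all listed) in √10 steps. After 5 days, nuclei were counted on 4× images. Relative viability is treated-well nuclei count divided by vehicle-well nuclei count, and values are medians of duplicate plates.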

HOP-62 = system: HOP-62
Method in brief: as §1

UMC-11 = system: UMC-11
Method in brief: as §1

NCI-H1755 = system: NCI-H1755
Method in brief: as §1

NCI-H358 = system: NCI-H358
Method in brief: as §1

COR-L 105 = system: COR-L 105
Method in brief: as §1

NCI-H647 = system: NCI-H647
Method in brief: as §1

NCI-H1734 = system: NCI-H1734
Method in brief: as §1

NCI-H1395 = system: NCI-H1395
Method in brief: as §1

HARA = system: HARA
Method in brief: as §1

NCI-H1792 = system: NCI-H1792
Method in brief: as §1

NCI-H1793 = system: NCI-H1793
Method in brief: as §1

NCI-H2347 = system: NCI-H2347
Method in brief: as §1

NCI-H2009 = system: NCI-H2009
Method in brief: as §1

NCI-H838 = system: NCI-H838
Method in brief: as §1

NCI-H2170 = system: NCI-H2170
Method in brief: as §1

SK-MES-1 = system: SK-MES-1
Method in brief: as §1

NCI-H1355 = system: NCI-H1355
Method in brief: as §1

NCI-H1993 = system: NCI-H1993
Method in brief: as §1

HCC-15 = system: HCC-15
Method in brief: as §1

NCI-H2228 = system: NCI-H2228
Method in brief: as §1

NCI-H522 = system: NCI-H522
Method in brief: as §1

For `Cc1sc2c(c1C)C(c1ccc(Cl)cc1)=N[C@@H](CC(=O)OC(C)(C)C)c1nnc(C)n1-2` [JQ1] + COc1cccc2cc(-c3nc([C@H]4CC[C@H](C(=O)O)CC4)n4ncnc(N)c34)[nH]c12 [OSI-027] (partner 0.5 µM), the relative viability (COR-L23; first compound 0.04 µM) was 0.861, the relative viability (COR-L23; first compound 0.1265 µM) was 0.662 and the relative viability (COR-L23; first compound 0.4 µM) was 0.699. For the same molecule, the relative viability (COR-L23; first compound 1.265 µM) was 0.293, the relative viability (COR-L23; first compound 4 µM) was 0.46 and the relative viability (HOP-62; first compound 0.04 µM) was 0.826. For the same molecule, the relative viability (HOP-62; first compound 0.1265 µM) was 0.613, the relative viability (HOP-62; first compound 0.4 µM) was 0.45 and the relative viability (HOP-62; first compound 1.265 µM) was 0.189. It also gave a relative viability (HOP-62; first compound 4 µM) of 0.149, a relative viability (UMC-11; first compound 0.04 µM) of 0.396 and a relative viability (UMC-11; first compound 0.1265 µM) of 0.399. The relative viability (UMC-11; first compound 0.4 µM) was 0.258, the relative viability (UMC-11; first compound 1.265 µM) was 0.192 and the relative viability (UMC-11; first compound 4 µM) was 0.182. It also gave a relative viability (NCI-H1755; first compound 0.04 µM) of 0.758, a relative viability (NCI-H1755; first compound 0.1265 µM) of 0.68 and a relative viability (NCI-H1755; first compound 0.4 µM) of 0.668. It also gave a relative viability (NCI-H1755; first compound 1.265 µM) of 0.527, a relative viability (NCI-H1755; first compound 4 µM) of 0.39 and a relative viability (NCI-H358; first compound 0.04 µM) of 0.705. It also gave a relative viability (NCI-H358; first compound 0.1265 µM) of 0.796, a relative viability (NCI-H358; first compound 0.4 µM) of 0.748 and a relative viability (NCI-H358; first compound 1.265 µM) of 0.47. The relative viability (NCI-H358; first compound 4 µM) was 0.461, the relative viability (COR-L 105; first compound 0.04 µM) was 0.608 and the relative viability (COR-L 105; first compound 0.1265 µM) was 0.336. The relative viability (COR-L 105; first compound 0.4 µM) was 0.297, the relative viability (COR-L 105; first compound 1.265 µM) was 0.207 and the relative viability (COR-L 105; first compound 4 µM) was 0.248. For the same molecule, the relative viability (NCI-H647; first compound 0.04 µM) was 0.567, the relative viability (NCI-H647; first compound 0.1265 µM) was 0.469 and the relative viability (NCI-H647; first compound 0.4 µM) was 0.388. It also gave a relative viability (NCI-H647; first compound 1.265 µM) of 0.293, a relative viability (NCI-H647; first compound 4 µM) of 0.174 and a relative viability (NCI-H1734; first compound 0.04 µM) of 0.619. It also gave a relative viability (NCI-H1734; first compound 0.1265 µM) of 0.508, a relative viability (NCI-H1734; first compound 0.4 µM) of 0.601 and a relative viability (NCI-H1734; first compound 1.265 µM) of 0.354. For the same molecule, the relative viability (NCI-H1734; first compound 4 µM) was 0.413, the relative viability (NCI-H1395; first compound 0.04 µM) was 0.626 and the relative viability (NCI-H1395; first compound 0.1265 µM) was 0.489. For the same molecule, the relative viability (NCI-H1395; first compound 0.4 µM) was 0.605, the relative viability (NCI-H1395; first compound 1.265 µM) was 0.488 and the relative viability (NCI-H1395; first compound 4 µM) was 0.477. The relative viability (HARA; first compound 0.04 µM) was 0.418, the relative viability (HARA; first compound 0.1265 µM) was 0.341 and the relative viability (HARA; first compound 0.4 µM) was 0.282. The relative viability (HARA; first compound 1.265 µM) was 0.11, the relative viability (HARA; first compound 4 µM) was 0.141 and the relative viability (NCI-H1792; first compound 0.04 µM) was 0.666. For the same molecule, the relative viability (NCI-H1792; first compound 0.4 µM) was 0.82, the relative viability (NCI-H1792; first compound 1.265 µM) was 0.497 and the relative viability (NCI-H1792; first compound 4 µM) was 0.57. The relative viability (NCI-H1793; first compound 0.04 µM) was 0.237, the relative viability (NCI-H1793; first compound 0.1265 µM) was 0.343 and the relative viability (NCI-H1793; first compound 0.4 µM) was 0.38. It also gave a relative viability (NCI-H1793; first compound 1.265 µM) of 0.241, a relative viability (NCI-H1793; first compound 4 µM) of 0.286 and a relative viability (NCI-H2347; first compound 0.04 µM) of 0.328. It also gave a relative viability (NCI-H2347; first compound 0.1265 µM) of 0.536, a relative viability (NCI-H2347; first compound 0.4 µM) of 0.305 and a relative viability (NCI-H2347; first compound 1.265 µM) of 0.346. The relative viability (NCI-H2347; first compound 4 µM) was 0.31, the relative viability (NCI-H2009; first compound 0.04 µM) was 0.558 and the relative viability (NCI-H2009; first compound 0.1265 µM) was 0.471. For the same molecule, the relative viability (NCI-H2009; first compound 0.4 µM) was 0.318, the relative viability (NCI-H2009; first compound 1.265 µM) was 0.185 and the relative viability (NCI-H2009; first compound 4 µM) was 0.179. The relative viability (NCI-H838; first compound 0.04 µM) was 0.379, the relative viability (NCI-H838; first compound 0.1265 µM) was 0.369 and the relative viability (NCI-H838; first compound 0.4 µM) was 0.433. For the same molecule, the relative viability (NCI-H838; first compound 1.265 µM) was 0.251, the relative viability (NCI-H838; first compound 4 µM) was 0.21 and the relative viability (NCI-H2170; first compound 0.04 µM) was 0.683. The relative viability (NCI-H2170; first compound 0.1265 µM) was 0.623, the relative viability (NCI-H2170; first compound 0.4 µM) was 0.688 and the relative viability (NCI-H2170; first compound 1.265 µM) was 0.422. It also gave a relative viability (NCI-H2170; first compound 4 µM) of 0.362, a relative viability (SK-MES-1; first compound 0.04 µM) of 0.614 and a relative viability (SK-MES-1; first compound 0.1265 µM) of 0.497. It also gave a relative viability (SK-MES-1; first compound 0.4 µM) of 0.379, a relative viability (SK-MES-1; first compound 1.265 µM) of 0.157 and a relative viability (SK-MES-1; first compound 4 µM) of 0.158. For the same molecule, the relative viability (NCI-H1355; first compound 0.04 µM) was 0.429, the relative viability (NCI-H1355; first compound 0.1265 µM) was 0.374 and the relative viability (NCI-H1355; first compound 0.4 µM) was 0.42. It also gave a relative viability (NCI-H1355; first compound 1.265 µM) of 0.25, a relative viability (NCI-H1355; first compound 4 µM) of 0.253 and a relative viability (NCI-H1993; first compound 0.04 µM) of 0.511. For the same molecule, the relative viability (NCI-H1993; first compound 0.1265 µM) was 0.608, the relative viability (NCI-H1993; first compound 0.4 µM) was 0.623 and the relative viability (NCI-H1993; first compound 1.265 µM) was 0.537. The relative viability (NCI-H1993; first compound 4 µM) was 0.538, the relative viability (HCC-15; first compound 0.04 µM) was 0.693 and the relative viability (HCC-15; first compound 0.4 µM) was 0.593. The relative viability (HCC-15; first compound 1.265 µM) was 0.347, the relative viability (HCC-15; first compound 4 µM) was 0.315 and the relative viability (NCI-H2228; first compound 0.04 µM) was 0.731. The relative viability (NCI-H2228; first compound 0.1265 µM) was 0.657, the relative viability (NCI-H2228; first compound 0.4 µM) was 0.466 and the relative viability (NCI-H2228; first compound 1.265 µM) was 0.257. It also gave a relative viability (NCI-H2228; first compound 4 µM) of 0.296, a relative viability (NCI-H522; first compound 0.04 µM) of 0.657 and a relative viability (NCI-H522; first compound 0.1265 µM) of 0.556. The relative viability (NCI-H522; first compound 0.4 µM) was 0.617 and the relative viability (NCI-H522; first compound 4 µM) was 0.468.
